Consider four compounds from article PMC6429275, “Isothiocyanates and Glucosinolates from Sisymbrium officinale (L.) Scop. (“the Singers’ Plant”): Isolation and in Vitro Assays on the Somatosensory and Pain Receptor TRPA1 Channel” (Molecules, 2019).

“And” between values parts separate entries of the source, which are not always exact repeats. Equal entries are not always repeated. Where two headings read alike, the source gives them in different places. Bounds are passed on as bounds.

Assay [1] concerns the target T1, rat TRPA1 (Rattus norvegicus, UniProt Q6RI86).
T1 construct: expressed in transfected cells; host or cells: HEK-293 cells, stably transfected
Briefly: rat TRPA1-mediated elevation of intracellular Ca2+ (Fluo-4) in transfected HEK-293 cells, agonist mode. As to conditions: for Efficacy (%AITC 100μM): TRPA1, percentage of the effect on [Ca2+]i observed with 100 μM allylisothiocyanate (AITC); for Efficacy (%AITC 100μM) / EC50: rTRPA1-HEK-293 cells; for activity on TRPA1 channel (result in words): in vitro assays on TRPA1; for EC50: Potency EC50, TRPA1, concentration producing half-maximal increase in [Ca2+]i. The class given is cell-based. As to the method:
(§1) Compound effects on intracellular Ca^2+ concentration ([Ca^2+]i) were determined using the selective intracellular fluorescent probe Fluo-4. Assays of the rat TRPA1-mediated elevation of intracellular Ca^2+ in transfected HEK-293 cells were performed as described. Briefly, human embryonic kidney (HEK-293) cells (stably transfected with rat TRPA1 or not transfected) were cultured in EMEM + 2 mM Glutamine + 1 % non-essential amino acids (NEAA) + 10 % FBS and maintained at 37 °C with 5 % CO2. On the day of the experiment, the cells were loaded with Fluo-4 AM (4 μM) for 1 h at room temperature, rinsed and resuspended in Tyrode’s solution (145 mM NaCl, 2.5 mM KCl, 1.5 mM CaCl2, 1.2 mM MgCl2, 10 mM d-glucose, and 10 mM HEPES, pH 7.4), and finally transferred to a quartz cuvette of a spectrofluorimeter (Perkin-Elmer LS50B, Perkin Elmer Inc, Buckinghamshire, UK); λEX = 488 nm, λEM = 516 nm) equipped with a PTP-1 Fluorescence Peltier System (PerkinElmer Life and Analytical Sciences, Waltham, MA, USA) under continuous stirring. Cell fluorescence before and after the addition of various concentrations of test compounds was measured, normalizing the effects against the response to ionomycin (4 µM). The values of the effect on [Ca^2+]i in not-transfected HEK-293 cells were used as a baseline and subtracted from the values obtained from transfected cells. Agonist efficacy was expressed as a percentage of the effect on [Ca^2+]i observed with 100 μM allylisothiocyanate (AITC). The potency of the compounds (EC50 values) was determined as the concentration required to produce half-maximal increases in [Ca^2+]i. Antagonist/desensitizing behavior as evaluated against TRPA1 agonist AITC 100 μM by adding the compound directly into the quartz cuvette 5 min before the stimulation of cells with the agonist. IC50 is expressed as the concentration exerting a half-maximal inhibition of an agonist effect, taking as 100% the effect on [Ca^2+]i exerted by the agonist alone. Dose–response curves are fitted by a sigmoidal regression with a variable slope. Curve fitting and parameter estimation were performed with a GraphPad Prism (GraphPad Software Inc., San Diego, CA). Three independent experiments were done for each determination; all determinations were performed at least in triplicate. The time-course spectra showing the increase of intracellular Ca^2+ upon application of the compounds are available in Supplementary Material (S10).

Assay [2] addresses T1, rat TRPA1. Briefly: Antagonist/desensitizing behavior against AITC 100 μM in rTRPA1-HEK-293 cells (5 min pre-incubation). The format is cell-based. The method, then:
as §1

Assay [3] has as its system not-transfected HEK cells. Briefly: Intracellular Ca2+ elevation in not-transfected HEK-293 cells. The format is cell-based, human. The note with it: compound at 100 μM. The method, then:
Compound effects on intracellular Ca^2+ concentration ([Ca^2+]i) were determined using the selective intracellular fluorescent probe Fluo-4. Assays of the rat TRPA1-mediated elevation of intracellular Ca^2+ in transfected HEK-293 cells were performed as described. Briefly, human embryonic kidney (HEK-293) cells (stably transfected with rat TRPA1 or not transfected) were cultured in EMEM + 2 mM Glutamine + 1 % non-essential amino acids (NEAA) + 10 % FBS and maintained at 37 °C with 5 % CO2. On the day of the experiment, the cells were loaded with Fluo-4 AM (4 μM) for 1 h at room temperature, rinsed and resuspended in Tyrode’s solution (145 mM NaCl, 2.5 mM KCl, 1.5 mM CaCl2, 1.2 mM MgCl2, 10 mM d-glucose, and 10 mM HEPES, pH 7.4), and finally transferred to a quartz cuvette of a spectrofluorimeter (Perkin-Elmer LS50B, Perkin Elmer Inc, Buckinghamshire, UK); λEX = 488 nm, λEM = 516 nm) equipped with a PTP-1 Fluorescence Peltier System (PerkinElmer Life and Analytical Sciences, Waltham, MA, USA) under continuous stirring. Cell fluorescence before and after the addition of various concentrations of test compounds was measured, normalizing the effects against the response to ionomycin (4 µM). […] Agonist efficacy was expressed as a percentage of the effect on [Ca^2+]i observed with 100 μM allylisothiocyanate (AITC). […]

T1 sequence (Q6RI86 whole entry): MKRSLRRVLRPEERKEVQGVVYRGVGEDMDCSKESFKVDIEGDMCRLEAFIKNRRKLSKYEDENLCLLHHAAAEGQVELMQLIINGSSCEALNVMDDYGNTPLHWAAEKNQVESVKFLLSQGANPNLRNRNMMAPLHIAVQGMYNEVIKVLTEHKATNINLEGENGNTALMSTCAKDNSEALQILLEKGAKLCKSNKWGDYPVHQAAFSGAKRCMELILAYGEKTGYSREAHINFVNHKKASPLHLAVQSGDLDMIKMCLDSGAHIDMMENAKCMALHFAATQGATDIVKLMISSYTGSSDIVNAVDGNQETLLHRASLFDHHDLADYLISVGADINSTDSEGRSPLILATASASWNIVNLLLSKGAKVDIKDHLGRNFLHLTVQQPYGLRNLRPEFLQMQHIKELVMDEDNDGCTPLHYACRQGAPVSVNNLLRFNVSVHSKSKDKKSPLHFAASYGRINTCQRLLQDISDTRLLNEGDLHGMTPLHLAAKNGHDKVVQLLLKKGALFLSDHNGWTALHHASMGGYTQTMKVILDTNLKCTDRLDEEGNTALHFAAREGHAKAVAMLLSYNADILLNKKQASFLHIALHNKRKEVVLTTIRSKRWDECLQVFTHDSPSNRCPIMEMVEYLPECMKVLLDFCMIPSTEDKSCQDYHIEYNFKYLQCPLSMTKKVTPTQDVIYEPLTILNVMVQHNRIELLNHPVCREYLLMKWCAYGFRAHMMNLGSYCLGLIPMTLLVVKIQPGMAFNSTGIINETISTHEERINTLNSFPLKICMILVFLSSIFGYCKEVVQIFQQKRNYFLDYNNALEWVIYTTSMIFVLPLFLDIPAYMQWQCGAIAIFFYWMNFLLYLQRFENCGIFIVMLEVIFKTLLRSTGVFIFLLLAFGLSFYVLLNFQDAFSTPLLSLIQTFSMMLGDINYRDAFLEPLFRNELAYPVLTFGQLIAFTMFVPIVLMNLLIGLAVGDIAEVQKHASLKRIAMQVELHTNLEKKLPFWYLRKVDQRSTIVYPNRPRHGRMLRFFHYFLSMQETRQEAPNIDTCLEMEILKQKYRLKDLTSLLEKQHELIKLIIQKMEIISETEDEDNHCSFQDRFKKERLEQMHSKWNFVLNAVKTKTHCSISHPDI

Turning to `C=CCC(=NOS(=O)(=O)O)S[C@@H]1O[C@H](CO)[C@@H](O)[C@H](O)[C@H]1O` (stereo in doubt) [Compound 5, sinigrin, reference compound], at rat TRPA1 [1], the “Efficacy (%AITC 100μM)” value is <10% and the “activity on TRPA1 channel (result in words)” value (“activity on TRPA1 channel” below) is “ineffective”. Also, the “activity on TRPA1 channel” value on rat TRPA1 [1] (listed as sinigrin) is “inactive”. On rat TRPA1 [2], the 50% inhibitory concentration (IC50) was > 100 µM.
Consider `CC(C)N=C=S` [Compound 2, isopropylisothiocyanate], for which, at rat TRPA1 [1], the EC50 stood at 5.9 ± 0.4 µM; the “Efficacy (%AITC 100μM)” value was 108.8% and 108.8 ± 1.6%. Besides, in assay [3], the “activity (elevation of internal Ca2+) on not-transfected HEK cells” value is listed as “less than 1%”. On rat TRPA1 [2], the half-inhibitory concentration (IC50) came to 10.8 ± 0.4 µM.
Take `CCC(C)N=C=S` (stereo not shown) [Compound 4, 2-butylisothiocyanate]: on rat TRPA1 [1], the concentration for a half-maximal effect (EC50) came to 4.9 ± 0.2 µM; the “Efficacy (%AITC 100μM)” value was 98.0% and 98.0 ± 1.0%. For the same compound, the “activity (elevation of internal Ca2+) on not-transfected HEK cells” value in assay [3] is recorded as “less than 1%”. In addition, the concentration for half-maximal inhibition (IC50) at rat TRPA1 [2] is 12.1 ± 0.2 µM.
Regarding `CC(C)/C(=N/OS(=O)(=O)O)S[C@@H]1O[C@H](CO)[C@@H](O)[C@H](O)[C@H]1O` [Compound 1, glucoputranjivin], at rat TRPA1 [1], the “Efficacy (%AITC 100μM)” value is <10% and the “activity on TRPA1 channel” value is on record as “ineffective”. The “activity on TRPA1 channel” value on rat TRPA1 [1] (listed as glucoputranjivin) is “inactive”. In addition, the IC50 at rat TRPA1 [2] (compound added 5 min before stimulation with AITC 100 μM, rTRPA1-HEK-293 cells, read-out: IC50 Inhibition TRPA1 (AITC 100μM)) is > 100 µM.
